According to the NIST ThermoML archive (doi:10.1021/acs.jced.5b00980):
Numbers after ± are expanded uncertainties.

Assay: activity coefficient (dimensionless); of the first substance listed, at infinite dilution; xn = mol fraction of the nth substance listed
Settings: 100 kPa, Liquid, Chromatography, x1 = 0

Row | Compound | activity coefficient (328.15 K) | activity coefficient (338.15 K) | activity coefficient (348.15 K) | activity coefficient (358.15 K) | activity coefficient (368.15 K)
1 | CCCCCCCCC [nonane] + CCCC[P+](CC)(CCCC)CCCC.CCOP(=O)([O-])OCC | 5.79 ± 0.39 | 5.6 ± 0.38 | 5.43 ± 0.37 | 5.27 ± 0.36 | 5.13 ± 0.35
2 | C1CCOC1 [tetrahydrofuran] + CCCC[P+](CC)(CCCC)CCCC.CCOP(=O)([O-])OCC | 0.938 ± 0.059 | 0.926 ± 0.059 | 0.919 ± 0.058 | 0.907 ± 0.058 | 0.899 ± 0.057
3 | C1COCCO1 [1,4-dioxane] + CCCC[P+](CC)(CCCC)CCCC.CCOP(=O)([O-])OCC | 1.08 ± 0.07 | 1.06 ± 0.07 | 1.05 ± 0.07 | 1.03 ± 0.06 | 1.02 ± 0.06
4 | CCCCCCC [heptane] + CCCC[P+](CC)(CCCC)CCCC.CCOP(=O)([O-])OCC | 4.08 ± 0.28 | 3.97 ± 0.27 | 3.87 ± 0.26 | 3.78 ± 0.26 | 3.7 ± 0.25
5 | CC(C)CC(C)(C)C [2,2,4-trimethylpentane] + CCCC[P+](CC)(CCCC)CCCC.CCOP(=O)([O-])OCC | 4.38 ± 0.3 | 4.25 ± 0.29 | 4.15 ± 0.28 | 4.05 ± 0.28 | 3.97 ± 0.27
6 | CCCCCCCCCC [decane] + CCCC[P+](CC)(CCCC)CCCC.CCOP(=O)([O-])OCC | 7.01 ± 0.48 | 6.74 ± 0.46 | 6.49 ± 0.44 | 6.26 ± 0.43 | 6.05 ± 0.41
7 | CCCCCC [hexane] + CCCC[P+](CC)(CCCC)CCCC.CCOP(=O)([O-])OCC | 3.4 ± 0.23 | 3.33 ± 0.23 | 3.26 ± 0.22 | 3.21 ± 0.22 | 3.15 ± 0.21
8 | C#CCCCCC [1-heptyne] + CCCC[P+](CC)(CCCC)CCCC.CCOP(=O)([O-])OCC | 1.01 ± 0.06 | 1.05 ± 0.07 | 1.09 ± 0.07 | 1.13 ± 0.07 | 1.17 ± 0.07
9 | C1=CCCCC1 [cyclohexene] + CCCC[P+](CC)(CCCC)CCCC.CCOP(=O)([O-])OCC | 1.72 ± 0.12 | 1.69 ± 0.11 | 1.67 ± 0.11 | 1.65 ± 0.11 | 1.63 ± 0.11
10 | CCCOCCC [dipropyl ether] + CCCC[P+](CC)(CCCC)CCCC.CCOP(=O)([O-])OCC | 2.59 ± 0.18 | 2.55 ± 0.17 | 2.51 ± 0.17 | 2.47 ± 0.17 | 2.43 ± 0.17
11 | C=CCCC [1-pentene] + CCCC[P+](CC)(CCCC)CCCC.CCOP(=O)([O-])OCC | 2.18 ± 0.15 | 2.15 ± 0.15 | 2.13 ± 0.14 | 2.11 ± 0.14 | 2.09 ± 0.14
12 | CCCCC [pentane] + CCCC[P+](CC)(CCCC)CCCC.CCOP(=O)([O-])OCC | 2.91 ± 0.2 | 2.85 ± 0.19 | 2.8 ± 0.19 | 2.75 ± 0.19 | 2.7 ± 0.18
13 | CO [methanol] + CCCC[P+](CC)(CCCC)CCCC.CCOP(=O)([O-])OCC |  | 0.022 | 0.025 | 0.028 | 0.03
14 | CC#N [acetonitrile] + CCCC[P+](CC)(CCCC)CCCC.CCOP(=O)([O-])OCC | 0.464 ± 0.036 | 0.465 ± 0.036 | 0.467 ± 0.036 | 0.468 ± 0.037 | 0.469 ± 0.037
15 | CCC(C)(C)OC [2-methoxy-2-methylbutane] + CCCC[P+](CC)(CCCC)CCCC.CCOP(=O)([O-])OCC | 2.09 ± 0.14 | 2.07 ± 0.14 | 2.05 ± 0.14 | 2.02 ± 0.14 | 2.01 ± 0.14
16 | C1CCCCCCC1 [cyclooctane] + CCCC[P+](CC)(CCCC)CCCC.CCOP(=O)([O-])OCC | 2.82 ± 0.19 | 2.74 ± 0.19 | 2.69 ± 0.18 | 2.63 ± 0.18 | 2.57 ± 0.17
17 | COC(C)(C)C [2-methoxy-2-methylpropane] + CCCC[P+](CC)(CCCC)CCCC.CCOP(=O)([O-])OCC | 1.89 ± 0.13 | 1.86 ± 0.13 | 1.84 ± 0.12 | 1.82 ± 0.12 | 1.8 ± 0.12
18 | c1ccccc1 [benzene] + CCCC[P+](CC)(CCCC)CCCC.CCOP(=O)([O-])OCC | 0.871 ± 0.056 | 0.863 ± 0.055 | 0.855 ± 0.055 | 0.847 ± 0.054 | 0.84 ± 0.054

Row | Compound | activity coefficient (328.15 K) | activity coefficient (338.15 K) | activity coefficient (348.15 K) | activity coefficient (358.15 K) | activity coefficient (368.15 K)
19 | C#CCCCC [1-hexyne] + CCCC[P+](CC)(CCCC)CCCC.CCOP(=O)([O-])OCC | 0.849 ± 0.054 | 0.893 ± 0.057 | 0.936 ± 0.059 | 0.979 ± 0.061 | 1.02 ± 0.06
20 | CCC[N+](=O)[O-] [1-nitropropane] + CCCC[P+](CC)(CCCC)CCCC.CCOP(=O)([O-])OCC | 0.499 ± 0.038 | 0.507 ± 0.038 | 0.515 ± 0.038 | 0.523 ± 0.039 | 0.53 ± 0.039
21 | CC1CCCCC1 [methylcyclohexane] + CCCC[P+](CC)(CCCC)CCCC.CCOP(=O)([O-])OCC | 2.62 ± 0.18 | 2.57 ± 0.17 | 2.52 ± 0.17 | 2.48 ± 0.17 | 2.44 ± 0.17
22 | O [water] + CCCC[P+](CC)(CCCC)CCCC.CCOP(=O)([O-])OCC | 0.101 ± 0.03 | 0.105 ± 0.03 | 0.109 ± 0.03 | 0.112 ± 0.03 | 0.116 ± 0.03
23 | Cc1cccc(C)c1 [1,3-dimethylbenzene] + CCCC[P+](CC)(CCCC)CCCC.CCOP(=O)([O-])OCC | 1.7 ± 0.11 | 1.67 ± 0.11 | 1.64 ± 0.11 | 1.61 ± 0.11 | 1.59 ± 0.11
24 | Cc1ccc(C)cc1 [1,4-dimethylbenzene] + CCCC[P+](CC)(CCCC)CCCC.CCOP(=O)([O-])OCC | 1.64 ± 0.11 | 1.61 ± 0.11 | 1.59 ± 0.11 | 1.57 ± 0.1 | 1.55 ± 0.1
25 | Cc1ccccc1C [1,2-dimethylbenzene] + CCCC[P+](CC)(CCCC)CCCC.CCOP(=O)([O-])OCC | 1.55 ± 0.1 | 1.52 ± 0.1 | 1.5 ± 0.1 | 1.47 ± 0.1 | 1.45 ± 0.1
26 | C#CCCC [1-pentyne] + CCCC[P+](CC)(CCCC)CCCC.CCOP(=O)([O-])OCC | 0.725 ± 0.048 | 0.762 ± 0.05 | 0.797 ± 0.052 | 0.833 ± 0.054 | 0.866 ± 0.055
27 | CCCCC(C)=O [2-hexanone] + CCCC[P+](CC)(CCCC)CCCC.CCOP(=O)([O-])OCC | 1.15 ± 0.07 | 1.15 ± 0.07 | 1.15 ± 0.07 | 1.15 ± 0.07 | 1.14 ± 0.07
28 | CCC(C)CC [3-methylpentane] + CCCC[P+](CC)(CCCC)CCCC.CCOP(=O)([O-])OCC | 3.17 ± 0.22 | 3.12 ± 0.21 | 3.07 ± 0.21 | 3.02 ± 0.21 | 2.98 ± 0.2
29 | CCC(=O)CC [pentan-3-one] + CCCC[P+](CC)(CCCC)CCCC.CCOP(=O)([O-])OCC | 1.02 ± 0.06 | 1.02 ± 0.06 | 1.02 ± 0.06 | 1.02 ± 0.06 | 1.02 ± 0.06
30 | CCO [ethanol] + CCCC[P+](CC)(CCCC)CCCC.CCOP(=O)([O-])OCC |  | 0.035 | 0.038 | 0.042 | 0.045
31 | c1ccncc1 [pyridine] + CCCC[P+](CC)(CCCC)CCCC.CCOP(=O)([O-])OCC | 0.544 ± 0.04 | 0.545 ± 0.04 | 0.548 ± 0.04 | 0.549 ± 0.04 | 0.55 ± 0.04
32 | CCOCC [diethyl ether] + CCCC[P+](CC)(CCCC)CCCC.CCOP(=O)([O-])OCC | 1.79 ± 0.12 | 1.77 ± 0.12 | 1.75 ± 0.12 | 1.73 ± 0.12 | 1.71 ± 0.11
33 | Cc1ccccc1 [toluene] + CCCC[P+](CC)(CCCC)CCCC.CCOP(=O)([O-])OCC | 1.2 ± 0.08 | 1.19 ± 0.08 | 1.18 ± 0.08 | 1.16 ± 0.07 | 1.15 ± 0.07
34 | CCCC(=O)CC [3-hexanone] + CCCC[P+](CC)(CCCC)CCCC.CCOP(=O)([O-])OCC | 1.23 ± 0.08 | 1.21 ± 0.08 | 1.21 ± 0.08 | 1.2 ± 0.08 | 1.2 ± 0.08
35 | CCOC(C)(C)C [2-ethoxy-2-methylpropane] + CCCC[P+](CC)(CCCC)CCCC.CCOP(=O)([O-])OCC | 2.66 ± 0.18 | 2.6 ± 0.18 | 2.56 ± 0.17 | 2.51 ± 0.17 | 2.47 ± 0.17
